Laboratory results reported in patent US4124369A, “Combating fungi and controlling plant growth with 1-amido-1-azolyl-2-hydroxy- or -keto-alkanes” (Bayer Aktiengesellschaft, priority 1976, dated 1978).

system: soya bean plants; test: Influence on growth/soya beans; assay type: in vivo; details: 0.05%; footnote *
Excerpt: influence on growth/soya beans
(§1) Solvent: 10 parts by weight of methanol
(§2) Emulsifier: 2 parts by weight of polyoxyethylene sorbitan monolaurate
To prepare a suitable preparation of active compound, 1 part by weight of active compound was mixed with the stated amounts of solvent and emulsifier and the mixture was made up to the desired concentration with water.
Young soya bean plants, in the stage in which the first secondary leaves had unfolded, were sprayed with the preparation of active compound until dripping wet. After 3 weeks, the additional growth was measured and the inhibition of growth in % of the additional growth of the control plants was calculated. 0% denoted growth corresponding to that of the control plants. Positive values characterized promotion of growth compared to the control plants while negative values corrrespondingly indicated an inhibition of growth.
The active compounds, concentrations of the active compounds and results can be seen from the table which follows: […]

SMILES | Influence on growth, note on leaves
CC(C)(C)C(=O)C(NC(=O)COc1ccc(Cl)cc1Cl)n1ccnc1 (centres unmarked) [drawing 38] | dark green leaves

system: barley plants; test: Inhibition of growth/barley; assay type: in vivo; details: 0.05%; 100% = growth stopped, 0% = growth of untreated control
Excerpt: Inhibition of growth/barley
as §1, §2
To prepare a suitable preparation of active compound, 1 part by weight of active compound was mixed with the stated amount of solvent and emulsifier and the mixture was made up to the desired concentration with water.
Young barley plants, in the 2-leaf stage, were sprayed with the preparation of active compound until dripping wet. After the untreated control plants had reached a growth height of about 60 cm, the additional growth of all the plants was measured and the inhibition of growth in % of the additional growth of the control plants was calculated. 100% meant that growth had stopped and 0% denoted a growth corresponding to that of the untreated control plants.
The active compounds, concentrations of the active compounds and results can be seen from the table which follows.

SMILES | Inhibition of growth in %
CC(C)(C)C(=O)C(NC(=O)COc1ccc(Cl)cc1Cl)n1ccnc1 (centres unmarked) [drawing 41] | 45%

system: fungi; test: not given; details: German Offenlegungsschrift 1,795,249; cited from earlier work

SMILES | fungicidal activity (prior art)
c1ccc(C(c2ccccc2)(c2ccccc2)n2cncn2)cc1 [A, triphenyl-1,2,4-triazol-1-yl-methane, reference compound] | good fungicidal activity

same assay, conditions: especially low amounts and low concentrations; cited from earlier work

SMILES | action at low amounts and low concentrations (prior art)
c1ccc(C(c2ccccc2)(c2ccccc2)n2cncn2)cc1 [A, triphenyl-1,2,4-triazol-1-yl-methane, reference compound] | not always entirely satisfactory

system: tobacco plants; test: Inhibition of the growth of side shoots of tobacco; assay type: in vivo; details: 0.2%; after 3 weeks; 100% = absence of side shoots
Excerpt: inhibition of the growth of side shoots of tobacco
as §1
Emulsifier: 2 parts by weight of polyoxyethylene-sorbitan monolaurate
To prepare a suitable preparation of active compound, 1 parts by weight of active compound was mixed with the stated amounts of solvent and emulsifier and the mixture was made up to the desired concentration with water.
The shoot tips of about 50 cm high tobacco plants were broken off. On the following day, the plants were sprayed with the preparations of active compound until dripping wet. After 3 weeks, the side shoots which had formed during this time were broken off. All the side shoots of one treatment were weighed. The weight of the side shoots of the treated plants was compared with the weight of the side shoots of the untreated control plant. 100% inhibition denoted the absence of side shoots and 0% denoted a growth of side shoots which correspond to that of the control plants.
The active compounds, the concentrations of the active compounds and results can be seen from the table which follows: […]

SMILES | Inhibition in % (growth of side shoots)
CC(C)(C)C(=O)C(NC(=O)COc1ccc(Cl)cc1Cl)n1ccnc1 (centres unmarked) [drawing 42] | 97%

system: Podosphaera leucotricha; test: Podosphaera test (apple)/protective; assay type: in vivo; details: 0.00125% active compound; protective; 10 days after inoculation; 0% = no infection, 100% = completely infected
Method: podosphaera test (apple)/protective Solvent: 4.7 parts by weight of acetone Emulsifier: 0.3 part by weight of alkylaryl polyglycol ether Water: 95 parts by weight The amount of active compound required for the desired concentration of the active compound in the spray liquid was mixed with the stated amount of solvent, and the concentrate was diluted with the stated amount of water which contained the stated additions. Young apple seedlings in the 4-6 leaved stage were sprayed with the spray liquid until dripping wet. The plants remained in a greenhouse for 24 hours at 20° C. and at a relative atmospheric humidity of 70%. They were then inoculated by dusting with conidia of the apple powdery mildew causative organism (Podosphaera leucotricha) and placed in a greenhouse at a temperature of 21°-23° C. and at a relative atmospheric humidity of about 70%. 10 days after the inoculation, the infection of the seedlings was determined. The ratings obtained were converted to percent infection. 0% meant no infection: 100% meant that the plants were completely infected. The active compounds, the concentrations of the active compounds and the results can be seen from the following table: […]

SMILES | Infection in % at an active compound concentration of 0.00125%
CC(C)(C)C(=O)C(NC(=O)c1ccc(Cl)cc1)n1cncn1 (centres unmarked) [Compound 1, 1-(p-chlorobenzamido)-3,3-dimethyl-1-(1,2,4-triazol-1-yl) butan-2-one] | 50%
c1ccc(C(c2ccccc2)(c2ccccc2)n2cncn2)cc1 [A, triphenyl-1,2,4-triazol-1-yl-methane, reference compound] | 85%

system: Erysiphe graminis var. hordei; test: Powdery mildew of barley test/systemic (seed treatment); assay type: in vivo, Erysiphe graminis var. hordei on barley; details: 25% by weight active compound in the dressing, 10 g dressing/kg of seed, systemic, 0% = no infection
Method: powdery mildew of barley (Erysiphe graminis var.hordei)/systemic (fungal disease of cereal shoots) The active compounds were used as pulverulent seed treatment agents. They were prepared by extending the particular active compound with a mixture of equal parts by weight of talc and kieselguhr to give a finely pulverulent mixture of the desired concentration of active compound. For the treatment of seed, barley seed was shaken with the extended active compound in a closed glass bottle. The seed was sown at the rate of 3 × 12 grains in flowerpots, 2 cm deep in a mixture of one part by volume of Fruhstorfer standard soil and one part by volume of quartz sand. The germination and emergence took place under favorable conditions in a greenhouse. 7 days after sowing, when the barley plants have developed their first leaf, they were dusted with fresh spores of Erysiphe graminis var. hordei and grown on at 21°-22° C. and 80-90% relative atmospheric humidity and 16 hours' exposure to light. The typical mildew pustules formed on the leaves over the course of 6 days. The degree of infection was expressed as a percentage of the infection of the untreated control plants. Thus, 0% denoted no infection and 100% denoted the same degree of infection as in the case of the untreated control. […] The active compounds and concentrations of active compound in the seed treatment agent, as well as the amount used of the latter, and the percentage infection with mildew can be seen from the table which follows: […]

SMILES | Infection in % of the untreated control
CC(C)(C)C(=O)C(NC(=O)Cc1ccccc1)n1cncn1 (centres unmarked) [drawing 34] | 0.0%
CC(C)(C)C(O)C(NC(=O)c1ccccc1)n1cncn1 (centres unmarked) [drawing 35] | 17.5%
CC(C)(C)C(=O)NC(C(=O)C(C)(C)C)n1cncn1 (centres unmarked) | 25.0%
CC(C)(C)C(=O)C(NC(=O)Cc1ccccc1)n1ccnc1 (centres unmarked) | 50.0%
CC(C)(C)C(=O)C(NC(=O)c1cccc(Cl)c1)n1ccnc1 (centres unmarked) [drawing 32] | 50.0%
CC(C)(C)C(O)C(NC(=O)c1ccccc1Cl)n1ccnc1 (centres unmarked) [drawing 31] | 58.8%
CC(C)(C)C(=O)C(NC(=O)c1ccccc1Cl)n1ccnc1 (centres unmarked) | 55.0%
CC(C)(C)C(=O)C(NC(=O)c1ccccc1Cl)n1cncn1 (centres unmarked) [drawing 29] | 0.0%
c1ccc(C(c2ccccc2)(c2ccccc2)n2cncn2)cc1 [drawing 27, reference compound] | 88.8%
CC(C)(C)C(O)C(NC(=O)c1cc(Cl)ccc1Cl)n1cncn1 (centres unmarked) [drawing 33] | 25.0%
CC(C)(C)C(=O)C(NC(=O)c1ccccc1)n1cncn1 (centres unmarked) [drawing 30] | 0.0%

system: Erysiphe graminis var. hordei; test: Shoot treatment test/powdery mildew of cereals/protective; assay type: in vivo, Erysiphe graminis var. hordei on barley (Amsel variety); details: 0.01% by weight active compound in the spray liquor; protective; 6 days; 0% = no infection
Method: shoot treatment test/powdery mildew of cereals/protective (leaf-destructivemycosis)
To produce a suitable preparation of active compound, 0.25 part by weight of active compound was taken up in 25 parts by weight of dimethylformamide and 0.06 part by weight of emulsifier alkylarylpolyglycol ether and then 975 parts by weight of water were added. The concentration was diluted with water to the desired final concentration of the spray liquor.
To test for protective activity, single-leaved young barley plants of the Amsel variety were sprayed with the preparation of active compound until dew-moist. After drying, the barley plants were dusted with spores of Erysiphe graminis var. hordei.
After 6 days' dwell time of the plants at a temperature of 21°-22° C. and 80-90% atmospheric humidity the occurrence of mildew pustules on the plants was evaluated. The degree of infection was expressed as a percentage of the infection of the untreated control plants. 0% denoted no infection and 100% denoted that same degree of infection as in the case of the untreated control.
The active compounds, the concentrations of the active compounds in the spray liquor and degrees of infection can be seen from the table which follows: […]

SMILES | Infection in % of the untreated control
c1ccc(C(c2ccccc2)(c2ccccc2)n2cncn2)cc1 [drawing 13, reference compound] | 100.0%
CC(C)(C)C(=O)C(NC(=O)c1ccc(Cl)cc1)n1cncn1 (centres unmarked) [drawing 14] | 0.0%
CC(C)(C)C(=O)C(NC(=O)COc1ccccc1)n1cncn1 (centres unmarked) | 32.5%

same assay, conditions: 0.025% by weight active compound in the spray liquor; protective; 6 days; 0% = no infection

SMILES | Infection in % of the untreated control
CC(C)(C)C(O)C(NC(=O)c1ccccc1Cl)n1ccnc1 (centres unmarked) [drawing 19] | 28.8%
CC(C)(C)C(=O)C(NC(=O)Cc1ccccc1)n1cncn1 (centres unmarked) [drawing 24] | 40.0%
CC(C)(C)C(=O)C(NC(=O)c1ccccc1)n1cncn1 (centres unmarked) [drawing 18] | 500%
c1ccc(C(c2ccccc2)(c2ccccc2)n2cncn2)cc1 [drawing 13, reference compound] | 100.0%
CC(C)(C)C(=O)C(NC(=O)c1cc(Cl)ccc1Cl)n1ccnc1 (centres unmarked) | 21.3%
CC(C)(C)C(=O)C(NC(=O)c1ccccc1Cl)n1cncn1 (centres unmarked) [drawing 16] | 50.0%
CC(C)(C)C(O)C(NC(=O)c1cc(Cl)ccc1Cl)n1cncn1 (centres unmarked) [drawing 23] | 40.0%
CC(C)(C)C(=O)C(NC(=O)c1cccc(Cl)c1)n1ccnc1 (centres unmarked) [drawing 20] | 28.8%
CC(C)(C)C(=O)C(NC(=O)c1ccccc1)n1ccnc1 (centres unmarked) | 12.5%
CC(C)(C)C(=O)C(NC(=O)c1cc(Cl)ccc1Cl)n1cncn1 (centres unmarked) | 50.0%
CC(C)(C)C(O)C(NC(=O)c1ccccc1)n1cncn1 (centres unmarked) [drawing 25] | 40.0%
CC(C)(C)C(=O)NC(C(=O)C(C)(C)C)n1ccnc1 (centres unmarked) | 30.0%

system: Fusicladium dendriticum; test: Fusicladium test (apple)/protective; assay type: in vivo, Fusicladium dendriticum (apple scab) on apple seedlings; details: 0.0025% active compound; protective; 15 days after inoculation; 0% = no infection, 100% = completely infected
Method: fusicladium test (apple)/Protective Solvent: 4.7 parts by weight of acetone Emulsifier: 0.3 part by weight of alkylaryl polyglycol ether Water: 95 parts by weight. The amount of active compound required for the desired concentration of the active compound in the spray liquid was mixed with the stated amount of solvent, and the concentrate was diluted with the stated amount of water which contained with stated additions. Young apple seedlings in the 4-6 leaved stage were sprayed with the spray liquid until dripping wet. The plants remained in a greenhouse for 24 hours at 20° C. and at a relative atmospheric humidity of 70%. They were then inoculated with an aqueous conidium suspension of the apple scab causative organism (Fusicladium dendriticum) and incubated for 18 hours in a humidity chamber at 18°-20° C. and at a relative atmospheric humidity of 100%. The plants were then brought into a greenhouse for 14 days. 15 days after inoculation, the infection of the seedlings was determined. The ratings obtained were converted to percent infection. 0% meant no infection; 100% meant that the plants were completely infected. The active compounds, the concentrations of the active compounds and the results can be seen from the following table: […]

SMILES | Infection in % at an active compound concentration of 0.0025%
CC(C)(C)C(=O)C(NC(=O)c1ccc(Cl)cc1)n1cncn1 (centres unmarked) [Compound 1, 1-(p-chlorobenzamido)-3,3-dimethyl-1-(1,2,4-triazol-1-yl) butan-2-one] | 50%
c1ccc(C(c2ccccc2)(c2ccccc2)n2cncn2)cc1 [A, triphenyl-1,2,4-triazol-1-yl-methane, reference compound] | 83%
